In patent publication US9585905B2, “Sweet taste receptor antagonist compositions” (Four LLC, priority 2014, dated 2017):
“Also recorded” adds a separate entry of the source. Where two headings read alike, the source gives them in different places.

B1: Miraculin (protein, UniProt P13087 30-220, looked up)
Miraculin: DSAPNPVLDIDGEKLRTGTNYYIVPVLRDHGGGLTVSATTPNGTFVCPPRVVQTRKEVDHDRPLAFFPENPKEDVVRVSTDLNINFSAFMPCRWTSSTVWRLDKYDESTGQYFVTIGGVKGNPGPETISSWFKIEEFCGSGFYKLVFCPTVCGSCKVKCGDVGIYIDQKGRRRLALSDKPFAFEFNKTVYF

Assays:
[1] = test system: sweet taste (10% sucrose reference); assay: Duration of sweet taste blockade: sensory panelist rates sweetness intensity (SI) of 10% sucrose after 5 min oral exposure to sample; assay type: in vivo, human; conditions: for SI: 0-10 scale, 10% sucrose=10; for sweet taste inhibition following exposure of the oral cavity (in words): in vivo
Description: A standard method was developed to quantify the duration of sweet taste blockade for the gymnemic acid compositions of the present invention. […] In all cases, sucrose was used as the sweetener in sweet taste blockade quantification. Thus, 10%, 8%, 6%, 4%, and 2% (w/v) sucrose solutions in reverse osmosis (RO) purified water were freshly prepared and, at the beginning of each experiment, 15 mL samples of each sucrose solution were used to calibrate sensory panelist on sweetness intensity. The sensory panelist is described as a person with training in sensory evaluation with at least 1 year of experience as a sensory panelist in the area of gustatation, and preferably with training in descriptive analysis. Standard scaling methodology was used for quantification of sweetness intensity (SI) on the following scale: • 10% sucrose=10, • 8% sucrose=8, • 6% sucrose=6, • 4% sucrose=4, • 2% sucrose=2, and • 0% sucrose=0.
Following panelist calibration with the sucrose reference standards, the panelist rinsed their mouth with 15 mL RO water and the sweetness inhibitor sample in 15 mL RO water was then immediately taken into the mouth and gently agitated for 5 minutes. The sweet taste inhibitor sample was then expectorated and a 15 mL sample of the 10% sucrose reference solution was then immediately re-tasted, perceived SI within 15 seconds was rated on the 0-10 scale, the sample expectorated, and the mouth rinsed vigorously with 15 mL RO water. The 10% sucrose sample was then re-tasted every 15 min and SI rated. The panelist was asked to make comments on the observations of non-sweet taste attributes at each sucrose reference tasting interval.

[2] = test system: bitter taste of bitter compounds (quinine, denatonium benzoate, tetralone, sucrose octaacetate, pseudoephedrine, dextromethorphan); conditions: cited from earlier work
[3] = 10% sucrose re-tasted at 15 min
[4] = 10% sucrose re-tasted at 30 min
[5] = 10% sucrose re-tasted at 45 min
[6] = 10% sucrose re-tasted at 60 min
[7] = 10% sucrose re-tasted at 75 min
[8] = 10% sucrose re-tasted at 90 min
[9] = 10% sucrose re-tasted at 105 min
[10] = 10% sucrose re-tasted at 120 min
[11] = 10% sucrose tasted at 0 min after expectoration of sample (in 15 mL RO water, held 5 min)

Molecule | SI [1, 3] | SI [1, 4] | SI [1, 5] | SI [1, 6] | SI [1, 7] | SI [1, 8] | SI [1, 9] | SI [1, 10] | SI [1, 11] | sweet taste inhibition following exposure of the oral cavity (in words) [1] | bitterness inhibitory activity ([2]; against denatonium benzoate) | bitterness inhibitory activity ([2]; against dextromethorphan) | bitterness inhibitory activity ([2]; against pseudoephedrine) | bitterness inhibitory activity ([2]; against quinine) | bitterness inhibitory activity ([2]; against sucrose octaacetate) | bitterness inhibitory activity ([2]; against tetralone) | inhibition of the bitterness of quinine hydrochloride (QHCl) ([2]; up to)
COc1ccc(OC(C)C(=O)O)cc1 (stereo not drawn) [Lactisole] | 10 | 10 | 10 | 10 | 10 | 10 | 10 | 10 | 12 | no sweet taste inhibition was observed; also recorded: caused no sweetness inhibition following expectoration | – | – | – | – | – | – | –
O=S(=O)([O-])[O-].[Zn+2] [zinc sulfate] | – | – | – | – | – | – | – | – | – | – | effective bitterness inhibitor | no significant bitterness inhibitory activity | no significant bitterness inhibitory activity | effective bitterness inhibitor | no significant bitterness inhibitory activity | effective bitterness inhibitor | up to 70%
B1 | 10 | 10 | 10 | 10 | 10 | 10 | 10 | 10 | 10 | No sweet taste inhibitory effect was observed | – | – | – | – | – | – | –
